According to US20210355104A1, “ADENOSINE RECEPTOR BINDING COMPOUNDS” (Nikang Therapeuticsm Inc., priority 2018, published 2021):
Values joined by “and” are separate entries in the source; they are usually repeats but may differ in a detail not shown here. Equal entries are not always repeated.

biological target: Adenosine A2A receptor (Homo sapiens, UniProt P29274); experiment: cAMP assay in 293A cells stably expressing the adenosine A2A receptor (CGS21680 stimulation, HTRF); type: cell-based; parameters: expressed in transfected cells; host or cells: 293A cells (Invitrogen, Cat# R705-07) infected with A2A-expressing lentivirus (custom packaged by Biosettia), puromycin selected; conditions: 293A cells stably expressing A2A receptor; 0.1% BSA; 1 uM CGS21680 stimulation; replicate values separated by /; read-out: cAMP (nM) 0.1% BSA, 1 uM CGS
Description: A 293A cell line (Invitrogen, Cat# R705-07) stably expressing the adenosine A2A receptor was generated in house. Briefly, 293A cells were seeded in 6-well plate and infected with A2A expressing lentivirus (custom packaged by Biosettia) and selected with puromycin (1 ug/ml). Cells survived selection were confirmed for A2A expression by RT-qPCR (RT Reagent: High-Capacity cDNA Reverse Transcription Kit, Applied Biosystems/Thermo Fisher Cat# 4368814, qPCR reagent: SYBR™ Green Master Mix, Applied Biosystems/Thermo Fisher Cat# 4309155). The cells were maintained in DMEM/F12 medium containing 10% FBS, 100 units/ml Penicillin, 100 μg/ml Streptomycin, and 1 μg/ml puromycin at 37° C., 5% CO2. 293A-A2AR cells were harvested on the day of assay and resuspended at 0.6 million cells/ml in DMEM/F12 with 0.1% BSA and 30 U/ml denosine deaminase(Roche, Cat #: 10102121001). Serial dilutions of compounds were prepared in DMEM/F12 with 0.1% BSA to a DMSO concentration of 0.6%. After 4 μl of compound dilutions were added, 4 μl suspended cells were dispensed into low-volume white 384-well plates (Greiner Bio-One). […] The assay plate was then incubated at room temperature for 30 min. 3 μl of d2 conjugated cAMP and 3 μl cryptate conjugated anti-cAMP antibody were then added. D2 conjugated cAMP and cryptate conjugated anti-cAMP antibody (Cisbio, Cat #: 62AM6PEC) were both prepared in cell lysis buffer according to the manufacturer's instruction. After 1 h incubation at room temperature, plates were read in CIARIOstar plate reader (BMG Labtech) using the HTRF detection mode.

Adenosine A2A receptor, sequence (P29274 whole entry): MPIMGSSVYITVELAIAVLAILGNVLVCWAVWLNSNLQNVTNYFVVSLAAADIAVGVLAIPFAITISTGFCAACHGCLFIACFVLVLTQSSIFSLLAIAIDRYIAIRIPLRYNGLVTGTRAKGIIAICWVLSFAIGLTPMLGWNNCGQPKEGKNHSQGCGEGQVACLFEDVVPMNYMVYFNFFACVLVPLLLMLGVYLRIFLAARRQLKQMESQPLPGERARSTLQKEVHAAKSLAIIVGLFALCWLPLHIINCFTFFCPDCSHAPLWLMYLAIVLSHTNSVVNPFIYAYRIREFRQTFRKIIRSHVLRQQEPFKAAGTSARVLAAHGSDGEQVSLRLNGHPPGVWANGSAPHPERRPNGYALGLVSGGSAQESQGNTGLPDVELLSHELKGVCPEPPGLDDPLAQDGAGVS

Question: With `Cc1cc(-c2c(OCc3nccc4c3nnn4C)nc(N)nc2-c2ccc(F)cc2)cc(C(F)F)n1` [Example 416, 5-(2-(difluoromethyl)-6-methylpyridin-4-yl)-4-(4-fluorophenyl)-6-((1-methyl-1H-[1,2,3]triazolo[4,5-c]pyridin-4-yl)methoxy)pyrimidin-2-amine] as the compound, how does the IC50 read?
Answer: 498 nM and 615 nM

Question: With `Cc1cc(-c2c(OCc3cccc(NS(C)(=O)=O)n3)nc(N)nc2-c2ccc(F)cc2)cc(C(F)F)n1` [Example 411, N-(6-(((2-amino-5-(2-(difluoromethyl)-6-methylpyridin-4-yl)-6-(4-fluorophenyl)pyrimidin-4-yl)oxy)methyl)pyridin-2-yl)methanesulfonamide] as the compound, how does the IC50 read?
Answer: 3190 nM

Question: `Cc1cc(-c2c(OCc3cc(C(C)(C)O)cc(-c4nnnn4C)n3)nc(N)nc2-c2ccc(F)cc2)cc(C(F)F)n1` [Example 426, 2-(2-(((2-amino-5-(2-(difluoromethyl)-6-methylpyridin-4-yl)-6-(4-fluorophenyl)pyrimidin-4-yl)oxy)methyl)-6-(1-methyl-1H-tetrazol-5-yl)pyridin-4-yl)propan-2-ol] was tested. Which IC50 did it give?
Answer: 7980 nM and 6190 nM

Question: Which IC50 does the source give for `Cc1cc(-c2c(OCc3cccc(C(C)(C)c4nn[nH]n4)n3)nc(N)nc2-c2ccc(F)cc2)cc(C(F)F)n1` [Example 400, 4-((6-(2-(2H-tetrazol-5-yl)propan-2-yl)pyridin-2-yl)methoxy)-5-(2-(difluoromethyl)-6-methylpyridin-4-yl)-6-(4-fluorophenyl)pyrimidin-2-amine] here?
Answer: 1000 nM and 1470 nM and 1440 nM

Question: `Cc1cc(-c2c(OCc3nc4cccc(C(C)(C)O)c4n3C)nc(N)nc2-c2ccc(F)cc2)cc(C(F)F)n1` [Example 396, 2-(2-(((2-amino-5-(2-(difluoromethyl)-6-methylpyridin-4-yl)-6-(4-fluorophenyl)pyrimidin-4-yl)oxy)methyl)-1-methyl-1H-benzo[d]imidazol-7-yl)propan-2-ol] was tested. Which IC50 did it give?
Answer: 869 nM and 634 nM

same assay, conditions: 293A-A2AR cells, 0.1% BSA, 1 uM CGS; read-out: cAMP (nM) 0.1% BSA, 1 uM CGS

Question: How did the IC50 turn out when `Cc1cc(-c2c(OCc3ccncn3)nc(N)nc2-c2cccc(C#N)c2C)cc(C(F)F)n1` [Example 240, 3-(2-amino-5-(2-(difluoromethyl)-6-methylpyridin-4-yl)-6-(pyrimidin-4-ylmethoxy)pyrimidin-4-yl)-2-methylbenzonitrile] was run?
Answer: 17000 nM

Question: How did the IC50 turn out when `Cc1cc(-c2c(OCCn3ccc(C(=O)O)cc3=O)nc(N)nc2-c2ccc(F)cc2)cc(C(F)F)n1` [Example 334, 1-(2-((2-amino-5-(2-(difluoromethyl)-6-methylpyridin-4-yl)-6-(4-fluorophenyl)pyrimidin-4-yl)oxy)ethyl)-2-oxo-1,2-dihydropyridine-4-carboxylic acid] was run?
Answer: 3170 nM

Question: `Cc1cc(-c2c(OCCC(C)(C)C(=O)O)nc(N)nc2-c2cccc(C#N)c2C)cc(C(F)F)n1` [Example 250, 4-((2-amino-6-(3-cyano-2-methylphenyl)-5-(2-(difluoromethyl)-6-methylpyridin-4-yl)pyrimidin-4-yl)oxy)-2,2-dimethylbutanoic acid] was tested. Which IC50 did it give?
Answer: 8570 nM

Question: `Cc1cc(-c2c(OCc3cccc(N4CC(C(=O)O)C4)n3)nc(N)nc2-c2ccc(F)cc2)cc(C(F)F)n1` [Example 293, 1-(6-(((2-amino-5-(2-(difluoromethyl)-6-methylpyridin-4-yl)-6-(4-fluorophenyl)pyrimidin-4-yl)oxy)methyl)pyridin-2-yl)azetidine-3-carboxylic acid] was tested. Which IC50 did it give?
Answer: 4350 nM

Question: With `CCc1c(COc2nc(N)nc(-c3ccc(F)cc3)c2-c2cc(C)nc(C(F)F)c2)nnn1CC(C)(C)O` [Example 252, 1-(4-(((2-ainino-5-(2-(difluoromethyl)-6-methylpyridin-4-yl)-6-(4-fluorophenyl)pyrimidin-4-yl)oxy)methyl)-5-ethyl-1H-1,2,3-triazol-1-yl)-2-methylpropan-2-ol] as the compound, how does the IC50 read?
Answer: 1260 nM

Question: `Cc1cc(-c2c(OCc3ccnc(C(C)(C)C#N)c3)nc(N)nc2-c2ccc(F)cc2)cc(C(F)F)n1` [Example 277, 2-(4-(((2-amino-5-(2-(difluoromethyl)-6-methylpyridin-4-yl)-6-(4-fluorophenyl)pyrimidin-4-yl)oxy)methyl)pyridin-2-yl)-2-methylpropanenitrile] was tested. Which IC50 did it give?
Answer: 455 nM
